Results: patent US20260262643A1, “HERBICIDAL BENZOXAZINES” (FMC CORPORATION, priority 2022, published 2026)

Columns and labels:
ryegrass, Italian [1] = assay: Test A postemergence; type: in vivo, Lolium multiflorum; details: postemergence, 10 days; for Ryegrass, Italian plant response rating: 125 g ai/ha, 0 to 100 scale, 0 no effect, 100 complete control; for Plant response rating, Ryegrass, Italian: 500 g ai/ha, visual injury, 0 to 100 scale (0 no effect, 100 complete control)
In short: (§1)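 Weeds and crops in loam–sand blend were sprayed preemergence onto soil or postemergence at 2–10 cm (one- to two-leaf stage). Test chemicals were in a non-phytotoxic solvent with surfactant. After 10 days in the greenhouse, injury was rated visually against untreated controls on a 0 (no effect) to 100 (complete control) scale.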

pigweed, palmer [2] = assay: Test A postemergence; type: in vivo, Amaranthus palmeri; details: postemergence, 10 days; for Pigweed, Palmer plant response rating: 125 g ai/ha, 0 to 100 scale, 0 no effect, 100 complete control; for Plant response rating, Pigweed, Palmer: 500 g ai/ha, visual injury, 0 to 100 scale (0 no effect, 100 complete control)
In short: as §1

sedge, umbrella = assay: Test B flooded paddy test; type: in vivo, Cyperus difformis; details: 250 g ai/ha, Flood, 13 days, 0 to 100 scale (0 no effect, 100 complete control)
In short: (§2)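 Species grown to 2-leaf stage; pots flooded 3 cm above soil and compound applied directly to paddy water, depth maintained throughout. After 13 days in greenhouse, plants visually rated against controls on 0–100 scale (0 no effect, 100 complete control); dash means no result.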

horseweed = assay: Test A postemergence; type: in vivo, Erigeron canadensis; details: postemergence, 10 days; for Horseweed plant response rating: 125 g ai/ha, 0 to 100 scale, 0 no effect, 100 complete control; for Plant response rating, Horseweed: 500 g ai/ha, visual injury, 0 to 100 scale (0 no effect, 100 complete control)
In short: as §1

barnyardgrass = assay: Test B flooded paddy test; type: in vivo, Echinochloa crus-galli; details: 250 g ai/ha, Flood, 13 days, 0 to 100 scale (0 no effect, 100 complete control)
In short: as §2

ryegrass, Italian [3] = assay: Test A preemergence; type: in vivo, Lolium multiflorum
In short: as §1

foxtail, giant [4] = assay: Test A preemergence; type: in vivo, Setaria faberi
In short: as §1

goosegrass [5] = assay: Test A postemergence; type: in vivo, Eleusine indica; details: postemergence, 10 days; for Goosegrass plant response rating: 125 g ai/ha, 0 to 100 scale, 0 no effect, 100 complete control; for Plant response rating, Goosegrass: 500 g ai/ha, visual injury, 0 to 100 scale (0 no effect, 100 complete control)
In short: as §1

blackgrass [6] = assay: Test A preemergence; type: in vivo, Alopecurus myosuroides
In short: as §1

ragweed [7] = assay: Test A postemergence; type: in vivo, Ambrosia artemisiifolia; details: postemergence, 10 days; for Ragweed plant response rating: 125 g ai/ha, 0 to 100 scale, 0 no effect, 100 complete control; for Plant response rating, Ragweed: 500 g ai/ha, visual injury, 0 to 100 scale (0 no effect, 100 complete control)
In short: as §1

blackgrass [8] = assay: Test A postemergence; type: in vivo, Alopecurus myosuroides; details: postemergence, 10 days; for Blackgrass plant response rating: 125 g ai/ha, 0 to 100 scale, 0 no effect, 100 complete control; for Plant response rating, Blackgrass: 500 g ai/ha, visual injury, 0 to 100 scale (0 no effect, 100 complete control)
In short: as §1

rice = assay: Test B flooded paddy test; type: in vivo, Oryza sativa; details: 250 g ai/ha, Flood, 13 days, 0 to 100 scale (0 no effect, 100 complete control)
In short: as §2

kochia [9] = assay: Test A postemergence; type: in vivo, Bassia scoparia; details: postemergence, 10 days; for Kochia plant response rating: 125 g ai/ha, 0 to 100 scale, 0 no effect, 100 complete control; for Plant response rating, Kochia: 500 g ai/ha, visual injury, 0 to 100 scale (0 no effect, 100 complete control)
In short: as §1

wheat [10] = assay: Test A preemergence; type: in vivo, Triticum aestivum
In short: as §1

oat, wild [11] = assay: Test A postemergence; type: in vivo, Avena fatua; details: postemergence, 10 days; for Oat, Wild plant response rating: 125 g ai/ha, 0 to 100 scale, 0 no effect, 100 complete control; for Plant response rating, Oat, Wild: 500 g ai/ha, visual injury, 0 to 100 scale (0 no effect, 100 complete control)
In short: as §1

wheat [12] = assay: Test A postemergence; type: in vivo, Triticum aestivum; details: postemergence, 10 days; for Wheat plant response rating: 125 g ai/ha, 0 to 100 scale, 0 no effect, 100 complete control; for Plant response rating, Wheat: 500 g ai/ha, visual injury, 0 to 100 scale (0 no effect, 100 complete control)
In short: as §1

ducksalad = assay: Test B flooded paddy test; type: in vivo, Heteranthera limosa; details: 250 g ai/ha, Flood, 13 days, 0 to 100 scale (0 no effect, 100 complete control)
In short: as §2

oat, wild [13] = assay: Test A preemergence; type: in vivo, Avena fatua
In short: as §1

soybean [14] = assay: Test A preemergence; type: in vivo, Glycine max
In short: as §1

ragweed [15] = assay: Test A preemergence; type: in vivo, Ambrosia artemisiifolia
In short: as §1

galium = assay: Test A postemergence; type: in vivo, Galium aparine; details: postemergence, 10 days
In short: as §1

soybean [16] = assay: Test A postemergence; type: in vivo, Glycine max; details: postemergence, 10 days; for Soybean plant response rating: 125 g ai/ha, 0 to 100 scale, 0 no effect, 100 complete control; for Plant response rating, Soybean: 500 g ai/ha, visual injury, 0 to 100 scale (0 no effect, 100 complete control)
In short: as §1

corn [17] = assay: Test A preemergence; type: in vivo, Zea mays
In short: as §1

pigweed, palmer [18] = assay: Test A preemergence; type: in vivo, Amaranthus palmeri
In short: as §1

goosegrass [19] = assay: Test A preemergence; type: in vivo, Eleusine indica
In short: as §1

foxtail, giant [20] = assay: Test A postemergence; type: in vivo, Setaria faberi; details: postemergence, 10 days; for Foxtail, Giant plant response rating: 125 g ai/ha, 0 to 100 scale, 0 no effect, 100 complete control; for Plant response rating, Foxtail, Giant: 500 g ai/ha, visual injury, 0 to 100 scale (0 no effect, 100 complete control)
In short: as §1

corn [21] = assay: Test A postemergence; type: in vivo, Zea mays; details: postemergence, 10 days; for Corn plant response rating: 125 g ai/ha, 0 to 100 scale, 0 no effect, 100 complete control; for Plant response rating, Corn: 500 g ai/ha, visual injury, 0 to 100 scale (0 no effect, 100 complete control)
In short: as §1

kochia [22] = assay: Test A preemergence; type: in vivo, Bassia scoparia
In short: as §1

[23] = 125 g ai/ha, visual injury after 10 days, 0 to 100 scale, 0 is no effect, 100 is complete control
[24] = 500 g ai/ha, 0 to 100 scale (0 no effect, 100 complete control), 10 days

C[C@H]1CN(C(=O)c2cccc(-n3cnc(CC4CCCCC4)n3)c2)c2cccc(Cl)c2O1 [Compound 90]
Ryegrass, Italian plant response rating (ryegrass, Italian [1]): 0 | Plant response rating, Ryegrass, Italian (ryegrass, Italian [1]): 0 | Pigweed, Palmer plant response rating (pigweed, palmer [2]): 0 | Plant response rating, Pigweed, Palmer (pigweed, palmer [2]): 50 | Plant response rating, Sedge, Umbrella (sedge, umbrella): 0 | Horseweed plant response rating (horseweed): 0 | Plant response rating, Horseweed (horseweed): 0 | Plant response rating, Barnyardgrass (barnyardgrass): 0 | Plant response rating, Ryegrass, Italian (ryegrass, Italian [3]; [23]): 0 | Plant response rating, Ryegrass, Italian (ryegrass, Italian [3]; [24]): 0 | Plant response rating, Foxtail, Giant (foxtail, giant [4]; [23]): 0 | Plant response rating, Foxtail, Giant (foxtail, giant [4]; [24]): 0 | Goosegrass plant response rating (goosegrass [5]): 0 | Plant response rating, Goosegrass (goosegrass [5]): 0 | Plant response rating, Blackgrass (blackgrass [6]; [23]): 0 | Plant response rating, Blackgrass (blackgrass [6]; [24]): 0 | Ragweed plant response rating (ragweed [7]): 0 | Plant response rating, Ragweed (ragweed [7]): 0 | Blackgrass plant response rating (blackgrass [8]): 0 | Plant response rating, Blackgrass (blackgrass [8]): 0 | Plant response rating, Rice (rice): 0 | Kochia plant response rating (kochia [9]): 0 | Plant response rating, Kochia (kochia [9]): 20 | Plant response rating, Wheat (wheat [10]; [23]): 0 | Plant response rating, Wheat (wheat [10]; [24]): 0 | Oat, Wild plant response rating (oat, wild [11]): 0 | Plant response rating, Oat, Wild (oat, wild [11]): 0 | Wheat plant response rating (wheat [12]): 10 | Plant response rating, Wheat (wheat [12]): 10 | Plant response rating, Ducksalad (ducksalad): 0 | Plant response rating, Oat, Wild (oat, wild [13]; [23]): 0 | Plant response rating, Oat, Wild (oat, wild [13]; [24]): 0 | Plant response rating, Soybean (soybean [14]; [23]): 0 | Plant response rating, Soybean (soybean [14]; [24]): 0 | Plant response rating, Ragweed (ragweed [15]; [23]): 0 | Plant response rating, Ragweed (ragweed [15]; [24]): 0 | Galium plant response rating (galium; 125 g ai/ha, 0 to 100 scale, 0 no effect, 100 complete control): 0 | Plant response rating, Galium (galium; 500 g ai/ha, visual injury, 0 to 100 scale (0 no effect, 100 complete control)): 0 | Soybean plant response rating (soybean [16]): 20 | Plant response rating, Soybean (soybean [16]): 20 | Plant response rating, Corn (corn [17]; [23]): 0 | Plant response rating, Corn (corn [17]; [24]): 0 | Plant response rating, Pigweed, Palmer (pigweed, palmer [18]; [23]): 0 | Plant response rating, Pigweed, Palmer (pigweed, palmer [18]; [24]): 0 | Plant response rating, Goosegrass (goosegrass [19]; [23]): 0 | Plant response rating, Goosegrass (goosegrass [19]; [24]): 0 | Foxtail, Giant plant response rating (foxtail, giant [20]): 0 | Plant response rating, Foxtail, Giant (foxtail, giant [20]): 0 | Corn plant response rating (corn [21]): 0 | Plant response rating, Corn (corn [21]): 0

Cc1cccc2c1O[C@@H](C)CN2C(=O)c1cccc(-n2cnc(C3CCCCC3)n2)c1 [Compound 82]
Ryegrass, Italian plant response rating (ryegrass, Italian [1]): 0 | Plant response rating, Ryegrass, Italian (ryegrass, Italian [1]): 30 | Pigweed, Palmer plant response rating (pigweed, palmer [2]): 0 | Plant response rating, Pigweed, Palmer (pigweed, palmer [2]): 50 | Plant response rating, Sedge, Umbrella (sedge, umbrella): 0 | Horseweed plant response rating (horseweed): 0 | Plant response rating, Horseweed (horseweed): 0 | Plant response rating, Barnyardgrass (barnyardgrass): 0 | Plant response rating, Ryegrass, Italian (ryegrass, Italian [3]; [23]): 60 | Plant response rating, Ryegrass, Italian (ryegrass, Italian [3]; [24]): 100 | Plant response rating, Kochia (kochia [22]; [23]): 0 | Plant response rating, Kochia (kochia [22]; [24]): 0 | Plant response rating, Foxtail, Giant (foxtail, giant [4]; [23]): 0 | Plant response rating, Foxtail, Giant (foxtail, giant [4]; [24]): 20 | Goosegrass plant response rating (goosegrass [5]): 0 | Plant response rating, Goosegrass (goosegrass [5]): 20 | Plant response rating, Blackgrass (blackgrass [6]; [23]): 0 | Plant response rating, Blackgrass (blackgrass [6]; [24]): 0 | Ragweed plant response rating (ragweed [7]): 0 | Plant response rating, Ragweed (ragweed [7]): 50 | Blackgrass plant response rating (blackgrass [8]): 0 | Plant response rating, Blackgrass (blackgrass [8]): 10 | Plant response rating, Rice (rice): 0 | Kochia plant response rating (kochia [9]): 70 | Plant response rating, Kochia (kochia [9]): 80 | Plant response rating, Wheat (wheat [10]; [23]): 0 | Plant response rating, Wheat (wheat [10]; [24]): 0 | Oat, Wild plant response rating (oat, wild [11]): 0 | Plant response rating, Oat, Wild (oat, wild [11]): 0 | Wheat plant response rating (wheat [12]): 10 | Plant response rating, Wheat (wheat [12]): 10 | Plant response rating, Ducksalad (ducksalad): 0 | Plant response rating, Oat, Wild (oat, wild [13]; [23]): 10 | Plant response rating, Oat, Wild (oat, wild [13]; [24]): 20 | Plant response rating, Soybean (soybean [14]; [23]): 0 | Plant response rating, Soybean (soybean [14]; [24]): 0 | Plant response rating, Ragweed (ragweed [15]; [23]): 0 | Plant response rating, Ragweed (ragweed [15]; [24]): 0 | Soybean plant response rating (soybean [16]): 90 | Plant response rating, Soybean (soybean [16]): 90 | Plant response rating, Corn (corn [17]; [23]): 0 | Plant response rating, Corn (corn [17]; [24]): 10 | Plant response rating, Pigweed, Palmer (pigweed, palmer [18]; [23]): 0 | Plant response rating, Pigweed, Palmer (pigweed, palmer [18]; [24]): 40 | Plant response rating, Goosegrass (goosegrass [19]; [23]): 20 | Plant response rating, Goosegrass (goosegrass [19]; [24]): 90 | Foxtail, Giant plant response rating (foxtail, giant [20]): 10 | Plant response rating, Foxtail, Giant (foxtail, giant [20]): 10 | Corn plant response rating (corn [21]): 0 | Plant response rating, Corn (corn [21]): 10
